Results from patent publication US20230373930A1, “AMINOIMIDAZOLE FPR2 AGONISTS” (BRISTOL-MYERS SQUIBB COMPANY, priority 2020, published 2023).

What was measured:
[1] = target: T1, human FPR1 (Homo sapiens, UniProt P21462); test: FPR1 cyclic adenosine monophosphate (cAMP) assay; assay type: cell-based; details: CHO cells overexpressing human FPR1; forskolin 10 μM; inhibition of cAMP production; HTRF; read-out: hFPR1 cAMP2 EC50
T1 sequence (P21462 1-350): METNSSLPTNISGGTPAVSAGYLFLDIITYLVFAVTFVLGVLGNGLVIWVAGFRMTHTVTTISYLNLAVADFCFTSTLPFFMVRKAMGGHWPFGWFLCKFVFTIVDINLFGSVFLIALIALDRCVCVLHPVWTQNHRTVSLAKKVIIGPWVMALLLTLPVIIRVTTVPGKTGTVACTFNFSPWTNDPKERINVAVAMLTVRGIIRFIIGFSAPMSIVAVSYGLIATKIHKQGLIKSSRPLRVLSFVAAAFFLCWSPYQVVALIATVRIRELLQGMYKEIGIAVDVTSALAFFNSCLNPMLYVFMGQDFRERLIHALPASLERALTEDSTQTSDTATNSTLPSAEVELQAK
Experimental: (§1) FPR2 and FPR1 Cyclic Adenosine Monophosphate (cAMP) Assays. A mixture of forskolin (5 μM final for FPR2 or 10 μM final for FPR1) and IBMX (200 μM final) were added to 384-well Proxiplates (Perkin-Elmer) pre-dotted with test compounds in DMSO (1% final) at final concentrations in the range of 0.020 nM to 100 μM. Chinese Hamster Ovary cells (CHO) overexpressing human FPR1 or human FPR2 receptors were cultured in F-12 (Ham's) medium supplemented with 10% qualified FBS, 250 μg/ml zeocin and 300 μg/ml hygromycin (Life Technologies). Reactions were initiated by adding 2,000 human FPR2 cells per well or 4,000 human FPR1 cells per well in Dulbecco's PBS (with calcium and magnesium) (Life Technologies) supplemented with 0.1% BSA (Perkin-Elmer). The reaction mixtures were incubated for 30 min at room temperature. The level of intracellular cAMP was determined using the HTRF HiRange cAMP assay reagent kit (Cisbio) according to manufacturer's instruction. Solutions of cryptate conjugated anti-cAMP and d2 flurorophore-labelled cAMP were made in a supplied lysis buffer separately. Upon completion of the reaction, the cells were lysed with equal volume of the d2-cAMP solution and anti-cAMP solution. After a 1-h room temperature incubation, time-resolved fluorescence intensity was measured using the Envision (Perkin-Elmer) at 400 nm excitation and dual emission at 590 nm and 665 nm. A calibration curve was constructed with an external cAMP standard at concentrations ranging from 1 μM to 0.1 μM by plotting the fluorescent intensity ratio from 665 nm emission to the intensity from the 590 nm emission against cAMP concentrations. The potency and activity of a compound to inhibit cAMP production was then determined by fitting to a 4-parametric logistic equation from a plot of cAMP level versus compound concentrations.

[2] = target: T2, human FPR2 (Homo sapiens, UniProt P25090); test: FPR2 cyclic adenosine monophosphate (cAMP) assay; assay type: cell-based; details: CHO cells overexpressing human FPR2; forskolin 5 μM; inhibition of cAMP production; HTRF; read-out: hFPR2 cAMP2 EC50
T2 sequence (P25090 1-351): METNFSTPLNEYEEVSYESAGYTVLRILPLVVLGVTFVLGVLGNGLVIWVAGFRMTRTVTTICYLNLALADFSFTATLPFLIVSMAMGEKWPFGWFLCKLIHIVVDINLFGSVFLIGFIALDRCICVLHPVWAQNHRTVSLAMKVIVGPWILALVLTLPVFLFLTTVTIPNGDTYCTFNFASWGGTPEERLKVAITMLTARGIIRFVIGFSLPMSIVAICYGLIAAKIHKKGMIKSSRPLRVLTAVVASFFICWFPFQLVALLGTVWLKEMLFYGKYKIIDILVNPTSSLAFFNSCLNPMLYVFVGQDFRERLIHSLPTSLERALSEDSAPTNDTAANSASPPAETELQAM
Experimental: as §1

EC50 [1] | EC50 [2] | Structure (SMILES)
> 10000 nM | 77 nM | COc1cc(F)c(-n2cc(C(=O)N3CCC[C@H]3CO)nc2NC(=O)c2ccc(OC(F)F)cc2)c(F)c1 [Example 50, N-[1-(2,6-Difluoro-4-methoxyphenyl)-4-[(2S)-2-(hydroxymethyl)pyrrolidine-1-carbonyl]-1H-imidazol-2-yl]-4-(difluoromethoxy)benzamide]
2900 nM | 83 nM | COc1cc(F)c(-n2cc(C(=O)N3CCCC(O)C3)nc2NC(=O)c2ccc(OC(F)F)cc2)c(F)c1 (stereo not drawn) [Example 51, N-[1-(2,6-Difluoro-4-methoxyphenyl)-4-(3-hydroxypiperidine-1-carbonyl)-1H-imidazol-2-yl]-4-(difluoromethoxy)benzamide]
> 10000 nM | 63 nM | COc1cc(F)c(-n2cc(C(=O)N3CCC(O)CC3)nc2NC(=O)c2ccc(OC(F)F)cc2)c(F)c1 [Example 52, N-[1-(2,6-Difluoro-4-methoxyphenyl)-4-(4-hydroxypiperidine-1-carbonyl)-1H-imidazol-2-yl]-4-(difluoromethoxy)benzamide]
4100 nM | 130 nM | COc1cc(F)c(-n2cc(C(=O)NCCO)nc2NC(=O)c2ccc(OC(F)F)cc2)c(F)c1 [Example 53, 1-(2,6-Difluoro-4-methoxyphenyl)-2-[4-(difluoromethoxy)benzamido]-N-(2-hydroxyethyl)-1H-imidazole-4-carboxamide]
> 10000 nM | 320 nM | COc1cc(F)c(-n2cc(C(=O)N3CCOCC3)nc2NC(=O)c2ccc(OC(F)F)cc2)c(F)c1 [Example 54, N-[1-(2,6-Difluoro-4-methoxyphenyl)-4-(morpholine-4-carbonyl)-1H-imidazol-2-yl]-4-(difluoromethoxy)benzamide]
> 10000 nM | 280 nM | COc1cc(F)c(-n2cc(C(=O)N3CCN(C)CC3)nc2NC(=O)c2ccc(OC(F)F)cc2)c(F)c1 [Example 55, N-[1-(2,6-Difluoro-4-methoxyphenyl)-4-(4-methylpiperazine-1-carbonyl)-1H-imidazol-2-yl]-4-(difluoromethoxy)benzamide]
110 nM | 89 nM | COc1cc(F)c(-n2cc(C(=O)NCc3cnc(C)cn3)nc2NC(=O)c2ccc(OC(F)F)cc2)c(F)c1 [Example 56, 1-(2,6-Difluoro-4-methoxyphenyl)-2-[4-(difluoromethoxy)benzamido]-N-[(5-methylpyrazin-2-yl)methyl]-1H-imidazole-4-carboxmaide]
1900 nM | 120 nM | COc1cc(F)c(-n2cc(C(=O)N3CC[C@H](O)C3)nc2NC(=O)c2ccc(OC(F)F)cc2)c(F)c1 [Example 57, N-[1-(2,6-Difluoro-4-methoxyphenyl)-4-[(3S)-3-hydroxypyrrolidine-1-carbonyl]-1H-imidazol-2-yl]-4-(difluoromethoxy)benzamide]
3400 nM | 170 nM | COc1cc(F)c(-n2cc(C(=O)N3CCNC(=O)C3)nc2NC(=O)c2ccc(OC(F)F)cc2)c(F)c1 [Example 58, N-[1-(2,6-Difluoro-4-methoxyphenyl)-4-(3-oxopiperazine-1-carbonyl)-1H-imidazol-2-yl]-4-(difluoromethoxy)benzamide]
2200 nM | 82 nM | COc1cc(F)c(-n2cc(C(=O)N3CCC(CO)C3)nc2NC(=O)c2ccc(OC(F)F)cc2)c(F)c1 (stereo not drawn) [Example 59, N-[1-(2,6-Difluoro-4-methoxyphenyl)-4-[3-(hydroxymethyl)pyrrolidine-1-carbonyl]-1H-imidazol-2-yl]-4-(difluoromethoxy)benzamide]
1400 nM | 56 nM | COc1cc(F)c(-n2cc(C(=O)NCCCO)nc2NC(=O)c2ccc(OC(F)F)cc2)c(F)c1 [Example 60, 1-(2,6-Difluoro-4-methoxyphenyl)-2-[4-(difluoromethoxy)benzamido]-N-(3-hydroxypropyl)-1H-imidazole-4-carboxamide]
> 10000 nM | 130 nM | COc1cc(F)c(-n2cc(C(=O)N3CCNCC3)nc2NC(=O)c2ccc(OC(F)F)cc2)c(F)c1 [Example 61, N-[1-(2,6-Difluoro-4-methoxyphenyl)-4-(piperazine-1-carbonyl)-1H-imidazol-2-yl]-4-(difluoromethoxy)benzamide]
830 nM | 32 nM | COc1cc(F)c(-n2cc(C(=O)Nc3cn[nH]c3)nc2NC(=O)c2ccc(OC(F)F)cc2)c(F)c1 [Example 62, 1-(2,6-Difluoro-4-methoxyphenyl)-2-[4-(difluoromethoxy)benzamido]-N-(1H-pyrazol-4-yl)-1H-imidazole-4-carboxamide]
710 nM | 10 nM | COc1cc(F)c(-n2cc(C3CCNCC3)nc2NC(=O)c2ccc(OC(F)F)cc2)c(F)c1 [Example 63, N-[1-(2,6-Difluoro-4-methoxyphenyl)-4-(piperidin-4-yl)-1H-imidazol-2-yl]-4-(difluoromethoxy)benzamide]
210 nM | 11 nM | COc1ccc(-n2cc(C3CCCNC3)nc2NC(=O)c2ccc(OC(F)F)cc2)cc1 (stereo not drawn) [Example 64, 4-(Difluoromethoxy)-N-[1-(4-methoxyphenyl)-4-(piperidin-3-yl)-1H-imidazol-2-yl]benzamide]
320 nM | 81 nM | CCS(=O)(=O)N1CCC(c2cn(-c3c(F)cc(OC)cc3F)c(NC(=O)c3ccc(OC(F)F)cc3)n2)CC1 [Example 65, N-[1-(2,6-Difluoro-4-methoxyphenyl)-4-[1-(ethanesulfonyl)piperidin-4-yl]-1H-imidazol-2-yl]-4-(difluoromethoxy)benzamide]
540 nM | 28 nM | CCNC(=O)N1CCC(c2cn(-c3c(F)cc(OC)cc3F)c(NC(=O)c3ccc(OC(F)F)cc3)n2)CC1 [Example 66, 4-[1-(2,6-Difluoro-4-methoxyphenyl)-2-[4-(difluoromethoxy)benzamido]-1H-imidazol-4-yl]-N-ethylpiperidine-1-carboxamide]
83 nM | 54 nM | COc1cc(F)c(-n2cc(C3CCN(C(=O)CCC(N)=O)CC3)nc2NC(=O)c2ccc(OC(F)F)cc2)c(F)c1 [Example 67, N-{4-[1-(3-Carbamoylpropanoyl)piperidin-4-yl]-1-(2,6-difluoro-4-methoxyphenyl)-1H-imidazol-2-yl}-4-(difluoromethoxy)benzamide]
110 nM | 45 nM | COc1cc(F)c(-n2cc(C3CCN(C(=O)CCO)CC3)nc2NC(=O)c2ccc(OC(F)F)cc2)c(F)c1 [Example 68, N-[1-(2,6-difluoro-4-methoxyphenyl)-4-[1-(3-hydroxypropanoyl)piperidin-4-yl]-1H-imidazol-2-yl]-4-(difluoromethoxy)benzamide]
2990 nM | 86 nM | COc1cc(F)c(-n2cc(C(=O)N3CCC(CO)CC3)nc2NC(=O)c2ccc(OC(F)F)cc2)c(F)c1 [Example 69, N-[1-(2,6-difluoro-4-methoxyphenyl)-4-[4-(hydroxymethyl)piperidine-1-carbonyl]-1H-imidazol-2-yl]-4-(difluoromethoxy)benzamide]
970 nM | 31 nM | COc1cc(F)c(-n2cc(C(C)C)nc2NC(=O)c2ccc(OC(F)F)cc2)c(F)c1 [Example 70, N-(1-(2,6-Difluoro-4-methoxyphenyl)-4-isopropyl-1H-imidazol-2-yl)-4-(difluoromethoxy)benzamide]
